Experimental data: patent US20080200337A1, “Mixed herbicide compositions for paddy field” (Bayer CropScience, priority 2007, published 2008)

Experiments:
Format in all cases: in vivo
transplanted rice [1] = test: Phytotoxicity, flooded paddy field, treatment at 3 leaf-stage (Test Example 2); details: treatment at 3 leaf-stage, after 4 weeks
Procedure: (§1) Carrier: 5 parts by weight of acetone
(§2) Surfactant: one part by weight of benzyloxy polyglycol ether.
(§3) Above described carrier and surfactant are mixed with one part by weight of the active compound ((a) ingredient and (b) ingredient) and the resulting preparation is then diluted with water to obtain given amount of the test drug (the formulation).
(§4) In a greenhouse, seeds or tubers of Echinochloa, Cyperus difformis L., Scirpus juncoides Roxburgh, Monochoria vaginalis Presl, annual broad-leaved weeds (Lindernia procumbens Philcox, Lindernia dubia L. Penn., Rotala indica Koehne, Elatine triandra Schk, Ammannia multiflora Roxb.), Cyperus serotinus Rottboel and Sagittaria pygmaea Miq. were inoculated in a 500 cm^2 pot filled with paddy field soil. After 2 leaf-stage of rice were transplanted, water was poured to a depth of about 3 cm. At 3.0 leaf-stage of Echinochloa, a prescribed, diluted solution of the formulation of each active compound and each herbicidal compound in the table was separately or simultaneously applied to the surface of water. After the treatment, the water depth of 3 cm was maintained, and herbicidal effect was examined after 4 weeks. In the assessment of the herbicidal effect and the phytotoxicity, 100% refers to complete death and 0% refers to no effect or no phytotoxicity.

Leptochloa chinensis = test: Weed control by spray treatment at 1.5 to 3.0 leaf-stage (Test Example 3); details: spray at 1.5 to 3.0 leaf-stage, 4 weeks later
Procedure: as §1, §2, §3
(§5) In a greenhouse, seeds of rice (var.: Nipponbare and RD23) and weeds (Echinochloa oryzicola Vasing, Echinochloa cruss-galli, Leptochloa chinensis, Cyperus difformis L., Cyperus iria L., annual broad-leaved weeds (Monochoria vaginalis Presl, Lindernia procumbens Philcox, Lindernia dubia L. Penn., Rotala indica Koehne, Elatine triandra Schk, Ammannia multiflora Roxb. and the like)) were sown in a 500 cm^2 pot filled with paddy field soil and covered with soil. Water was added to the pot (a depth of 0 cm) to be a wet condition, and each test plant was grown in the greenhouse to 1.5 to 3.0 leaf-stage, after then a prescribed, diluted solution of the formulation of each active compound and each herbicidal compound in the table were separately or simultaneously sprayed over the pots with plants. At 3 days after the treatment, the water depth of 3 cm was maintained, and 4 weeks later, herbicidal effect was then examined. In the assessment of the herbicidal effect and the phytotoxicity, 100% refers to complete death and 0% refers to no effect or no phytotoxicity.

Cyperus iria L. = test: as above; details: spray at 1.5 to 3.0 leaf-stage, 4 weeks later
Procedure: as §1, §2, §3, §5

[2] = test system: Echinochloa oryzicola Vasing; test: as above; details: spray at 1.5 to 3.0 leaf-stage, 4 weeks later
Procedure: as §1, §2, §3, §5

[3] = test system: annual broad-leaved weeds; test: as above; details: spray at 1.5 to 3.0 leaf-stage, 4 weeks later
Procedure: as §1, §2, §3, §5

[4] = test system: Monochoria vaginalis Presl; test: as above; details: spray at 1.5 to 3.0 leaf-stage, 4 weeks later
Procedure: as §1, §2, §3, §5

Cyperus difformis L. = test: as above; details: spray at 1.5 to 3.0 leaf-stage, 4 weeks later
Procedure: as §1, §2, §3, §5

Echinochloa cruss-galli = test: as above; details: spray at 1.5 to 3.0 leaf-stage, 4 weeks later
Procedure: as §1, §2, §3, §5

[5] = test system: submerged direct sown paddy (RD-23); test: Phytotoxicity, spray treatment at 1.5 to 3.0 leaf-stage (Test Example 3); details: spray at 1.5 to 3.0 leaf-stage, 4 weeks later, RD-23
Procedure: as §1, §2, §3, §5

[6] = test system: submerged direct sown paddy (Nipponbare); test: as above; details: spray at 1.5 to 3.0 leaf-stage, 4 weeks later
Procedure: as §1, §2, §3, §5

Echinochloa [7] = test: Weed control, flooded paddy field, treatment at 3 leaf-stage (Test Example 2); details: after 4 weeks
Procedure: as §1, §2, §3, §4

Sagittaria pygmaea Miq. [8] = test: as above; details: after 4 weeks
Procedure: as §1, §2, §3, §4

[9] = test system: Cyperus serotinus Rottboel; test: as above; details: after 4 weeks
Procedure: as §1, §2, §3, §4

[10] = test system: annual broad-leaved weeds; test: as above; details: after 4 weeks
Procedure: as §1, §2, §3, §4

[11] = test system: Scirpus juncoides Roxburgh; test: as above; details: after 4 weeks
Procedure: as §1, §2, §3, §4

[12] = test system: Monochoria vaginalis Presl; test: as above; details: after 4 weeks
Procedure: as §1, §2, §3, §4

Echinochloa [13] = test: Weed control, flooded paddy field, treatment at 1 leaf-stage (Test Example 1); details: after 4 weeks
Procedure: as §1, §2, §3
as §4, with “Echinochloa,” for “Echinochloa, Cyperus difformis L.,”, “1.0” for “3.0”, “Echinochloa oryzicola Vasing,” for “Echinochloa,”

Sagittaria pygmaea Miq. [14] = test: as above; details: after 4 weeks
Procedure: as §1, §2, §3
as §4, with “Echinochloa,” for “Echinochloa, Cyperus difformis L.,”, “1.0” for “3.0”, “Echinochloa oryzicola Vasing,” for “Echinochloa,”

[15] = test system: Cyperus serotinus Rottboel; test: as above; details: after 4 weeks
Procedure: as §1, §2, §3
as §4, with “Echinochloa,” for “Echinochloa, Cyperus difformis L.,”, “1.0” for “3.0”, “Echinochloa oryzicola Vasing,” for “Echinochloa,”

[16] = test system: annual broad-leaved weeds; test: as above; details: after 4 weeks
Procedure: as §1, §2, §3
as §4, with “Echinochloa,” for “Echinochloa, Cyperus difformis L.,”, “1.0” for “3.0”, “Echinochloa oryzicola Vasing,” for “Echinochloa,”

[17] = test system: Scirpus juncoides Roxburgh; test: as above; details: after 4 weeks
Procedure: as §1, §2, §3
as §4, with “Echinochloa,” for “Echinochloa, Cyperus difformis L.,”, “1.0” for “3.0”, “Echinochloa oryzicola Vasing,” for “Echinochloa,”

[18] = test system: Monochoria vaginalis Presl; test: as above; details: after 4 weeks
Procedure: as §1, §2, §3
as §4, with “Echinochloa,” for “Echinochloa, Cyperus difformis L.,”, “1.0” for “3.0”, “Echinochloa oryzicola Vasing,” for “Echinochloa,”

transplanted rice [19] = test: Phytotoxicity, flooded paddy field, treatment at 1 leaf-stage (Test Example 1); details: treatment at 1 leaf-stage, after 4 weeks
Procedure: as §1, §2, §3
as §4, with “Echinochloa,” for “Echinochloa, Cyperus difformis L.,”, “1.0” for “3.0”, “Echinochloa oryzicola Vasing,” for “Echinochloa,”

## COc1nc(OC)nc(C(O)c2cccc(F)c2N(C)S(=O)(=O)C(F)F)n1 (stereo not shown) [(a-3)]
Transplanted rice [1]; 30 g ai/ha
  Phytotoxicity (%) ORYSP: 0%
Transplanted rice [1]; 50 g ai/ha
  Phytotoxicity (%) ORYSP: 0%
Leptochloa chinensis; 30 g ai/ha
  Herbicidal effect (%) LEFCH: 65%
Leptochloa chinensis; 50 g ai/ha
  Herbicidal effect (%) LEFCH: 80%
Cyperus iria L.; 30 g ai/ha
  Herbicidal effect (%) CYPIR: 100%
Cyperus iria L.; 50 g ai/ha
  Herbicidal effect (%) CYPIR: 100%
[2]; 30 g ai/ha
  Herbicidal effect (%) ECHOR: 100%
[2]; 50 g ai/ha
  Herbicidal effect (%) ECHOR: 100%
[3]; 30 g ai/ha
  Herbicidal effect (%) BBBBB: 65%
[3]; 50 g ai/ha
  Herbicidal effect (%) BBBBB: 85%
[4]; 30 g ai/ha
  Herbicidal effect (%) MOOVP: 65%
[4]; 50 g ai/ha
  Herbicidal effect (%) MOOVP: 85%
Cyperus difformis L.; 30 g ai/ha
  Herbicidal effect (%) CYPDI: 100%
Cyperus difformis L.; 50 g ai/ha
  Herbicidal effect (%) CYPDI: 100%
Echinochloa cruss-galli; 30 g ai/ha
  Herbicidal effect (%) ECHCG: 100%
Echinochloa cruss-galli; 50 g ai/ha
  Herbicidal effect (%) ECHCG: 100%
[5]; 30 g ai/ha
  Phytotoxicity (%) ORYSW*^2: 0%
[5]; 50 g ai/ha
  Phytotoxicity (%) ORYSW*^2: 0%
[6]; 30 g ai/ha
  Phytotoxicity (%) ORYSW*^1: 0%
[6]; 50 g ai/ha
  Phytotoxicity (%) ORYSW*^1: 10%
Echinochloa [7]; 30 g ai/ha
  Herbicidal effect (%) ECHSS: 90%
Echinochloa [7]; 50 g ai/ha
  Herbicidal effect (%) ECHSS: 90%
Sagittaria pygmaea Miq. [8]; 30 g ai/ha
  Herbicidal effect (%) SAGPY: 70%
Sagittaria pygmaea Miq. [8]; 50 g ai/ha
  Herbicidal effect (%) SAGPY: 70%
[9]; 30 g ai/ha
  Herbicidal effect (%) CYPSEE: 90%
[9]; 50 g ai/ha
  Herbicidal effect (%) CYPSEE: 90%
[10]; 30 g ai/ha
  Herbicidal effect (%) BBBBB: 3%
[10]; 50 g ai/ha
  Herbicidal effect (%) BBBBB: 8%
[11]; 30 g ai/ha
  Herbicidal effect (%) SCPSS: 60%
[11]; 50 g ai/ha
  Herbicidal effect (%) SCPSS: 60%
[12]; 30 g ai/ha
  Herbicidal effect (%) MOOVP: 10%
[12]; 50 g ai/ha
  Herbicidal effect (%) MOOVP: 13%
Echinochloa [13]; 30 g ai/ha
  Herbicidal effect (%) ECHSS: 90%
Echinochloa [13]; 50 g ai/ha
  Herbicidal effect (%) ECHSS: 90%
Sagittaria pygmaea Miq. [14]; 30 g ai/ha
  Herbicidal effect (%) SAGPY: 70%
Sagittaria pygmaea Miq. [14]; 50 g ai/ha
  Herbicidal effect (%) SAGPY: 90%
[15]; 30 g ai/ha
  Herbicidal effect (%) CYPSEE: 90%
[15]; 50 g ai/ha
  Herbicidal effect (%) CYPSEE: 90%
[16]; 30 g ai/ha
  Herbicidal effect (%) BBBBB: 20%
[16]; 50 g ai/ha
  Herbicidal effect (%) BBBBB: 35%
[17]; 30 g ai/ha
  Herbicidal effect (%) SCPSS: 60%
[17]; 50 g ai/ha
  Herbicidal effect (%) SCPSS: 60%
[18]; 30 g ai/ha
  Herbicidal effect (%) MOOVP: 20%
[18]; 50 g ai/ha
  Herbicidal effect (%) MOOVP: 40%
Transplanted rice [19]; 30 g ai/ha
  Phytotoxicity (%) ORYSP: 0%
Transplanted rice [19]; 50 g ai/ha
  Phytotoxicity (%) ORYSP: 0%
